According to paper PMC11632778, “Adaptive Synthesis, Supramolecular Behavior, and Biological Properties of Amphiphilic Carbosilane-Phosphonium Dendrons with Tunable Structure” (Biomacromolecules, 2024):
Where two headings read alike, the source gives them in different places.

Tests used:
[1] = system: P. aeruginosa MR—clinical isolate A1245; assay: Microdilution broth MIC; format: cell-based; conditions: Pseudomonas aeruginosa, 24 h
Description: (§1) In vitro antibacterial activity of the prepared amp-DDNs (DnP6-1C12, DnP3-1C12, DnP3-2C12, and DnP3-2C18) was tested on a panel of four G+ (Staphylococcus aureus CCM 4516, methicillin-resistant S. aureus clinical isolate C1923, Staphylococcus epidermidis clinical isolate C1936, and vancomycin-resistant Enterococcus faecium clinical isolate S2484) and four G-bacterial strains (Escherichia coli K12, CCM 7929, E. coli clinical isolate A1235, extended-spectrum β-lactamase-producing (ESBL+) Klebsiella pneumoniae clinical isolate C1914, and multiresistant Pseudomonas aeruginosa clinical isolate A1245). CCM collection strains were obtained from the Czech Collection of Microorganisms. All clinical isolates were obtained during routine procedures in the clinical laboratory at the University Hospital Hradec Králové. All strains were stored at −70 °C in the Cryobank according to the manufacturer’s instructions. Subsequently, when needed, each bacterial strain was inoculated and cultivated on Mueller–Hinton agar (HiMedia, Cadersky-Envitek, Prague, Czech Republic).
(§2) The antibacterial susceptibility was determined by a microdilution broth method according to standard M07-A10,[55] and the optimized protocol has been published previously.[56],[57] Briefly, Mueller–Hinton broth (MHB) adjusted to pH 7.4 (±0.2) was used as the test medium. […] The wells of the microdilution tray contained 200 μL of the MHB with 2-fold serial dilutions of the compounds and were inoculated with 10 μL of the bacterial suspension. The bacterial suspensions were controlled densitometrically to reach 1.5 × 10^8 viable CFU per 1 mL. The minimum inhibitory concentration (MIC) values, defined as 95% inhibition of bacterial growth, were determined after 24 h of incubation at 35 °C ± 1 °C.

[2] = system: S. aureus CCM 4516; assay: Microdilution broth MIC; format: cell-based; conditions: Staphylococcus aureus
Description: as §1, §2

[3] = system: E. coli K12, CCM 7929; assay: Microdilution broth MIC; format: cell-based; conditions: Escherichia coli
Description: as §1, §2

[4] = system: K. pneumoniae ESBL+—clinical isolate C1914; assay: Microdilution broth MIC; format: cell-based; conditions: Klebsiella pneumoniae, 24 h
Description: as §1, §2

[5] = system: S. epidermidis—clinical isolate C1936; assay: Microdilution broth MIC; format: cell-based; conditions: Staphylococcus epidermidis, 24 h
Description: as §1, §2

[6] = system: E. faecium VRE—clinical isolate S2484; assay: Microdilution broth MIC; format: cell-based; conditions: Enterococcus faecium, 24 h
Description: as §1, §2

[7] = system: E. coli—clinical isolate A1235; assay: Microdilution broth MIC; format: cell-based; conditions: Escherichia coli, 24 h
Description: as §1, §2

[8] = system: S. aureus MRSA—clinical isolate C1926; assay: Microdilution broth MIC; format: cell-based; conditions: Staphylococcus aureus, 24 h
[9] = system: anti-miR-21 oligo(2′-O-methylribonucleotide); assay: DLS of dendriplexes with anti-miR-21 oligonucleotide; format: physicochemical; conditions: for mean diameter of dendriplex: 0.9% NaCl
Description: Dendriplexes were characterized by DLS using Zetasizer Nano-S (Malvern Panalytical, UK) equipped with a 632.8 nm laser, applying detection angle 173°. Mean diameters from the intensity-weighted size distribution are given. Average results from three consecutive sets of measurements generated by Malvern Zetasizer Software version 7.13 are presented.
Amphiphilic dendrons (1.5–73 μM) were mixed with the anti-miR-21:5′-m([…]) (500 nM) in 0.9% NaCl solution in milli-Q water. The dendrons’ concentrations were chosen to attain the charge ratio (CR, the ratio of cations over anions in the sample) of 1.2, 2.5, 5, 10, or 20. The samples were incubated for 15 min at rt prior to measurements.

[10] = Dynamic light scattering (DLS/MADLS) of micelles in physiological solution; format: physicochemical; conditions: for PDI / mean size (DLS, intensity-weighted): 1.0 mM dendron, 0.9% NaCl; for mean size of the second population (MADLS): aggregates; for mean diameter of the smaller particles (MADLS): isolated micelles
Description: The size of micelles and micellar aggregates was estimated by the dynamic light scattering (DLS) method using NanoBrook OMNI ZetaPALS (Brookhaven Instruments, USA) with a detection angle 90° and 640 nm laser. The presented diameters are mean values from the intensity-weighted size distribution. The composition of the samples was as follows: dendron (1.0 mM) and NaCl (0.9%) in deionized water. The solutions were sonicated for 30 min, filtered through 0.45 μm Nylon syringe filters (Avantor, USA), placed in standard polystyrene cuvettes (BI-SCP, Brookhaven Instruments), and stored at 4 °C. All measurements were conducted at 25 °C. Measurement time was set to 5 min, and each measurement was repeated 5 times. The analysis of data was performed using Brookhaven Instruments software Particle Solutions v3.6.07136.
MADLS and size dependence on concentration and pH were measured on Zetasizer Ultra Red (Malvern Panalytical, UK) equipped with a 632.8 nm laser, applying detection angles 12.78°, 90°, and 174.7° in the case of MADLS measurements and 12.78° for size dependence measurements. MADLS and concentration dependence were measured in DTS0012 polystyrene cuvettes (Malvern Panalytical, UK); pH dependence was studied by acidobasic titration in DTS1070 folded capillary Zeta cell, using MPT-3 Multipurpose Titrator and DEG0003 Auto Degasser (all Malvern Panalytical, UK). The concentration dependence measurement started at 1.0 mM and the samples were diluted 2-fold until the minimum concentration 0.06 mM. For each concentration, the measurement was repeated 3 times giving 15 measurements in total. The pH dependence measurement started at pH 12; the titration was performed with a step of 2 and at each step, the measurement was repeated 3 times, giving 18 measurements in total. Malvern Panalytical software ZS Xplorer version 3.3.1.5 was used for the analysis of data.

[11] = parameters: method as in doi:10.1016/j.colsurfa.2004.10.066; conditions: standard cationic surfactant; cited from earlier work
[12] = CCM4516, 24 h, 95% inhibition of growth, read-out: MIC
[13] = CCM7929, 24 h, 95% inhibition of growth, read-out: MIC
[14] = 95% inhibition of growth, read-out: MIC
[15] = after 75 day testing period, stored at 4 °C

SMILES | MIC [1] [µM] | MIC [4] [µM] | MIC [6] [µM] | MIC [8] [µM] | PI of dendriplex ([9]; CR 1.2) | mean diameter of dendriplex ([9]; CR 1.2, anti-miR-21 500 nM) [μm] | PI of dendriplex ([9]; CR 2.5) | mean diameter of dendriplex ([9]; CR 2.5, anti-miR-21 500 nM) [μm] | PI of dendriplex ([9]; CR 5) | mean diameter of dendriplex ([9]; CR 5, anti-miR-21 500 nM) [μm] | PI of dendriplex ([9]; CR 10) | mean diameter of dendriplex ([9]; CR 10, anti-miR-21 500 nM) [μm] | MIC ([2]; CCM4516, 24 h) [µM] | MIC ([3]; CCM7929, 24 h) [µM] | MIC [5] [µM] | MIC [7] [µM] | also measured
CCCCCCCCCCCCCCCCCCNC(=O)c1ccc(OCCC[Si](CCCSCC(=O)NCCC[P+](c2ccccc2)(c2ccccc2)c2ccccc2)(CCCSCC(=O)NCCC[P+](c2ccccc2)(c2ccccc2)c2ccccc2)CCCSCC(=O)NCCC[P+](c2ccccc2)(c2ccccc2)c2ccccc2)cc1 [DnP3-1C18] | > 6.25 | > 6.25 | 6.25 | 6.25 | 0.14 | 0.23 | 0.2 | 0.5 | 0.4 | > 1 | 0.3 | > 1 |  |  |  |  | MIC [2, 12]: 6.25 µM; MIC [3, 13]: > 6.25 µM; MIC [5, 14]: 3.13 µM; MIC [7, 14]: > 6.25 µM
CCCCCCCCCCCCCCCCCCNC(=O)c1cc(OCCC[Si](CCCSCC(=O)NCCC[P+](c2ccccc2)(c2ccccc2)c2ccccc2)(CCCSCC(=O)NCCC[P+](c2ccccc2)(c2ccccc2)c2ccccc2)CCCSCC(=O)NCCC[P+](c2ccccc2)(c2ccccc2)c2ccccc2)cc(C(=O)NCCCCCCCCCCCCCCCCCC)c1 [DnP3-2C18] | > 12.5 | > 12.5 | > 12.5 | > 12.5 | 0.12 | 0.20 | 0.2 | 0.9 | 0.3 | > 1 | 0.23 | 0.22 | > 12.5 | > 12.5 | > 12.5 | > 12.5 | PDI [10]: ≈ 0.2; mean size (DLS, intensity-weighted) ([10]; 25 °C, start of testing period): 14 nm; mean size (DLS, intensity-weighted) [10, 15]: 26 nm; mean size of the second population (MADLS) [10]: 80 nm; mean diameter of the smaller particles (MADLS) [10]: 11.8 nm; PI of dendriplex ([9]; CR 20): 0.29; mean diameter of dendriplex ([9]; CR 20, anti-miR-21 500 nM): 0.17 μm
CCCCCCCCCCCCCCCCCCNC(=O)c1cc(OCCC[Si](CCCSCC(=O)NCCC[P+](c2ccccc2)(c2ccccc2)c2ccccc2)(CCCSCC(=O)NCCC[P+](c2ccccc2)(c2ccccc2)c2ccccc2)CCCSCC(=O)NCCC[P+](c2ccccc2)(c2ccccc2)c2ccccc2)cc(OCCC[Si](CCCSCC(=O)NCCC[P+](c2ccccc2)(c2ccccc2)c2ccccc2)(CCCSCC(=O)NCCC[P+](c2ccccc2)(c2ccccc2)c2ccccc2)CCCSCC(=O)NCCC[P+](c2ccccc2)(c2ccccc2)c2ccccc2)c1 [DnP6-1C18] | > 6.25 | > 6.25 | 6.25 | 6.25 | 0.05 | 0.18 | 0.3 | > 1 | 0.3 | > 1 | 0.3 | > 1 | 6.25 | > 6.25 | 6.25 | > 6.25 | 
CCCCCCCCCCCCCCCC[N+](C)(C)C [cetyltrimethylammonium bromide] |  |  |  |  |  |  |  |  |  |  |  |  |  |  |  |  | CMC [11]: around 1 mM
CCCCCCCCCCCCNC(=O)c1cc(OCCC[Si](CCCSCC(=O)NCCC[P+](c2ccccc2)(c2ccccc2)c2ccccc2)(CCCSCC(=O)NCCC[P+](c2ccccc2)(c2ccccc2)c2ccccc2)CCCSCC(=O)NCCC[P+](c2ccccc2)(c2ccccc2)c2ccccc2)cc(C(=O)NCCCCCCCCCCCC)c1 [DnP3-2C12] | > 12.5 | > 12.5 | > 12.5 | > 12.5 | 0.11 | 0.13 | 0.2 | 0.8 | 0.3 | 1.0 | 0.14 | 0.18 | > 12.5 | > 12.5 | > 12.5 | > 12.5 | PDI [10]: ≈ 0.2; mean size (DLS, intensity-weighted) ([10]; 25 °C, start of testing period): 21 nm; mean size (DLS, intensity-weighted) [10, 15]: 25 nm; mean size of the second population (MADLS) [10]: 37 nm; mean diameter of the smaller particles (MADLS) [10]: 10.0 nm; PI of dendriplex ([9]; CR 20): 0.17; mean diameter of dendriplex ([9]; CR 20, anti-miR-21 500 nM): 0.14 μm
CCCCCCCCCCCCNC(=O)c1ccc(OCCC[Si](CCCSCC(=O)NCCC[P+](c2ccccc2)(c2ccccc2)c2ccccc2)(CCCSCC(=O)NCCC[P+](c2ccccc2)(c2ccccc2)c2ccccc2)CCCSCC(=O)NCCC[P+](c2ccccc2)(c2ccccc2)c2ccccc2)cc1 [DnP3-1C12] | > 12.5 | > 12.5 | 1.15 | 3.13 | 0.07 | 0.14 | 0.2 | 0.9 | 0.3 | > 1 | 0.1 | > 1 |  |  |  |  | MIC [2, 12]: 3.13 µM; MIC [3, 13]: 6.25 µM; MIC [5, 14]: 1.56 µM; MIC [7, 14]: 12.5 µM
CCCCCCCCCCCCNC(=O)c1cc(OCCC[Si](CCCSCC(=O)NCCC[P+](c2ccccc2)(c2ccccc2)c2ccccc2)(CCCSCC(=O)NCCC[P+](c2ccccc2)(c2ccccc2)c2ccccc2)CCCSCC(=O)NCCC[P+](c2ccccc2)(c2ccccc2)c2ccccc2)cc(OCCC[Si](CCCSCC(=O)NCCC[P+](c2ccccc2)(c2ccccc2)c2ccccc2)(CCCSCC(=O)NCCC[P+](c2ccccc2)(c2ccccc2)c2ccccc2)CCCSCC(=O)NCCC[P+](c2ccccc2)(c2ccccc2)c2ccccc2)c1 [DnP6-1C12] | ≥ 12.5 | 12.5 | 3.13 | 6.25 | 0.08 | 0.22 | 0.2 | 0.8 | 0.10 | 0.8 | 0.05 | 0.8 | 6.25 | 6.25 | 1.56 | 6.25 | 
